We go through 7 molecules from article PMC3962780 (ChemMedChem, 2013).

The subject of one experiment is MCF-7 ER(+) cells. Nature of the experiment: Cytotoxicity assay. It is filed as cell-based, human.
In the next experiment the test system is MCF-7 cells. The settings on record: MCF-7, 48 h, 4-OHT 10 μM; ref Bicaku et al. [9b]; cited from earlier work.
For the next experiment, the target named is human recombinant HDAC1 (Homo sapiens, UniProt Q13547). Nature of the experiment: HDAC activity assay, recombinant HDAC1. It is filed as biochemical.
Sequence of human recombinant HDAC1 (Q13547 whole entry): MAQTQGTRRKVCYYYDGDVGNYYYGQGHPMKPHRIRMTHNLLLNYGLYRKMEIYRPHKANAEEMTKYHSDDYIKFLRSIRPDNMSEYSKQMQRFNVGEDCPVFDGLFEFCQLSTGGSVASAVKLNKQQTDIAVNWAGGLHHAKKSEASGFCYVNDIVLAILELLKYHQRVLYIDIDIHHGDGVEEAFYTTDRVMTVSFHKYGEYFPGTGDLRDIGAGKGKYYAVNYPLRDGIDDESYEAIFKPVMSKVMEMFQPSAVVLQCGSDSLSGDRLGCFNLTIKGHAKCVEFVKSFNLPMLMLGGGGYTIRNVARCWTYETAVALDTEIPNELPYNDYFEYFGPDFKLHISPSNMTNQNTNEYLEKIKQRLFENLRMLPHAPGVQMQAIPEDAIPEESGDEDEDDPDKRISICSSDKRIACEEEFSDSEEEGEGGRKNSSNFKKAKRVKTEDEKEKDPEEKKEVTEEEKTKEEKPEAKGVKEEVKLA
A further experiment concerns the target human recombinant HDAC2 (Homo sapiens, UniProt Q92769). Nature of the experiment: HDAC activity assay, recombinant HDAC2. It is filed as biochemical.
For the next experiment, the target named is human recombinant HDAC3 (Homo sapiens, UniProt O15379). Description: HDAC activity assay, recombinant HDAC3. It is filed as biochemical.
Sequence of human recombinant HDAC3 (O15379 whole entry): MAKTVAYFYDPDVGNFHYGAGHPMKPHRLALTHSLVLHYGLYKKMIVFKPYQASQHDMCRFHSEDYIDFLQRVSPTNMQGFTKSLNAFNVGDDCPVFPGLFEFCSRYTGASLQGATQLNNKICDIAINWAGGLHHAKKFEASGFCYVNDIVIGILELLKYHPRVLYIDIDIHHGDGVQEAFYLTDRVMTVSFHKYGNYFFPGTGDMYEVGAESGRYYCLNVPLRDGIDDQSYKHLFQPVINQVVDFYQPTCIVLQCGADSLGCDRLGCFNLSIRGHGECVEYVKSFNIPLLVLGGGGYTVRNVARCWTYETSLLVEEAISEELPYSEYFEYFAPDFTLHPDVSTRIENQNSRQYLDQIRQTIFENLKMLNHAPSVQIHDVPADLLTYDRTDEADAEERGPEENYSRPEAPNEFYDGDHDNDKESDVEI
Sequence of human recombinant HDAC3 (Q9Y618 395-489 partner limits assumed): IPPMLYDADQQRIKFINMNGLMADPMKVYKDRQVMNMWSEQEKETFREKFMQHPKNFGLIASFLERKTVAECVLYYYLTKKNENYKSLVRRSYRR
Experiment [1] concerns the target T1, recombinant HDAC8 (purified from E. coli) (Homo sapiens, UniProt Q9BY41).
T1 sequence (Q9BY41 1-377): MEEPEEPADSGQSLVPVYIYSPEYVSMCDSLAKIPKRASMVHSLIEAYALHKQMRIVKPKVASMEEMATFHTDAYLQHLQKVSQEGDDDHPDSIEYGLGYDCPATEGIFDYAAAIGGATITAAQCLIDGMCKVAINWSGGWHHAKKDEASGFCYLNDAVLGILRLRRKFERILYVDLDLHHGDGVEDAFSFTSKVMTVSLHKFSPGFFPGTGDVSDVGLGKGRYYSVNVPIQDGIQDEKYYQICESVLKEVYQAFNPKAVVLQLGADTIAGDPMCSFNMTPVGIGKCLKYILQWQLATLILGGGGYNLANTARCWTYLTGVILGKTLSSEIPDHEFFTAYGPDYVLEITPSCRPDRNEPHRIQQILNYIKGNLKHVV
Description: HDAC activity assay, recombinant HDAC8. It is filed as biochemical.

In experiment [2] the target is T2, ERα (Homo sapiens, UniProt P03372).
T2 sequence (P03372 1-595): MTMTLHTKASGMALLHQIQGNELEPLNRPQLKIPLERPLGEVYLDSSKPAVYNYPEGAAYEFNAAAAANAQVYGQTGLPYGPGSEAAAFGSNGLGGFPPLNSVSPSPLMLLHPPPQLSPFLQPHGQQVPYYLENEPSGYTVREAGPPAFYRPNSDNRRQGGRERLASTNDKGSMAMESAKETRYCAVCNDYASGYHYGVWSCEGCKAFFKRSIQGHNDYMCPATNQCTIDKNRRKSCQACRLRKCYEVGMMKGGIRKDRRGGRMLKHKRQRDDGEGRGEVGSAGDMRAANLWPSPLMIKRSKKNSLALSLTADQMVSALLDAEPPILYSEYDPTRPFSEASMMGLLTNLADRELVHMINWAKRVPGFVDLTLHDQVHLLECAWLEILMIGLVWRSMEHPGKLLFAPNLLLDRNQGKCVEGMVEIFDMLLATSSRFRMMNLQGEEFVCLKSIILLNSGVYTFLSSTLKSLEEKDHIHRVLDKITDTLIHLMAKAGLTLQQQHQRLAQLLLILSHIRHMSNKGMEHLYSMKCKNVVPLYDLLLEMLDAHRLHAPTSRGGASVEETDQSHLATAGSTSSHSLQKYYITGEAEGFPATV
Description: Inhibition of 17β estradiol induced ERE-luciferase activity in MCF-7 cells. It is filed as cell-based. The settings on record: cotreatment with E2.

In experiment [3] the target is T2, ERα. Description: Ishikawa alkaline phosphatase assay. It is filed as cell-based.
The subject of the next experiment is MDA-MB-231 ER(−) cells. Nature of the experiment: Cytotoxicity assay. It is filed as cell-based, human. The settings on record: hybrid molecules 10 μM; 24, 48 and 72 h.

Sequence of human recombinant HDAC2 (Q92769 whole entry): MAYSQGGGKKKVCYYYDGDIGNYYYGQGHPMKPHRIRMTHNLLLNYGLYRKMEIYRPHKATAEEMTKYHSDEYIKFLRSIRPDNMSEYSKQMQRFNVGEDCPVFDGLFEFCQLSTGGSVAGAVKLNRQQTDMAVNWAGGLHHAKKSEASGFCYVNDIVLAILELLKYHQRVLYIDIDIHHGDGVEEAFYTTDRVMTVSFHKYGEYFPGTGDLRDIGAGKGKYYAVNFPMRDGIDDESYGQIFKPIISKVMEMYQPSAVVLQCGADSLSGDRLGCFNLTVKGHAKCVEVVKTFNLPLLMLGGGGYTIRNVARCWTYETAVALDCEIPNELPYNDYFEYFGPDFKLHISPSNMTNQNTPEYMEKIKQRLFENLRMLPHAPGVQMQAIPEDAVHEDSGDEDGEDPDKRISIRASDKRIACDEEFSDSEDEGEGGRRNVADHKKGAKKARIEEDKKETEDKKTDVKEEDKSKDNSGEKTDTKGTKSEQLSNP

As for `CC/C(=C(\c1ccc(O)cc1)c1ccc(OCCN(C)C)cc1)c1ccccc1` [4OHT, 4-hydroxytamoxifen], the “Cell death, combination with SAHA” value with MCF-7 ER(+) cells (ER(+) MCF-7 cells, 72 h combination treatment) is listed as “modest but significantly increased cell death”. Besides, in the experiment on MCF-7 cells, the “Increase in apoptosis in combination with SAHA over SAHA alone” value is on record as “approximately 10%”.
Take `O=C(CCCCCNC(=O)c1c(-c2ccc(O)cc2)sc2cc(O)ccc12)NO` [8a, 6-hydroxy-N-(6-(hydroxyamino)-6-oxohexyl)-2-(4-hydroxyphenyl)benzo[b]thiophene-3-carboxamide]: the concentration for half-maximal inhibition (IC50) (commonly the midpoint of a concentration-inhibition curve) at human recombinant HDAC1 is 596 ± 51 nM; on human recombinant HDAC2, 2440 ± 20 nM; on human recombinant HDAC3, 214 ± 6 nM; in experiment [1], 719 ± 63 nM.
For `O=C(CCCCCCNC(=O)c1c(-c2ccc(O)cc2)sc2cc(O)ccc12)NO` [8b, 6-hydroxy-N-(7-(hydroxyamino)-7-oxoheptyl)-2-(4-hydroxyphenyl)benzo[b]thiophene-3-carboxamide], the “Inhibition of estrogenic response (antiestrogenic activity), ERE-luciferase reporter” value at ERα [2] is on record as “concentration dependent inhibition of estrogenic response”.
Regarding `O=C(CCCCn1cc(-c2ccc(C(=O)c3c(-c4ccc(O)cc4)sc4cc(O)ccc34)cc2)nn1)NO` [15a, N-hydroxy-5-(4-(4-(6-hydroxy-2-(4-hydroxyphenyl)benzo[b]thiophene-3-carbonyl)phenyl)-1H-1,2,3-triazol-1-yl)pentanamide], the IC50 on human recombinant HDAC1 turned out to be 8390 ± 300 nM; at human recombinant HDAC2 it was 19200 ± 650 nM; on human recombinant HDAC3, 5740 ± 530 nM; in experiment [1], 23500 ± 1500 nM.
For `O=C(CCCCCn1cc(-c2ccc(C(=O)c3c(-c4ccc(O)cc4)sc4cc(O)ccc34)cc2)nn1)NO` [15b, N-hydroxy-6-(4-(4-(6-hydroxy-2-(4-hydroxyphenyl)benzo[b]thiophene-3-carbonyl)phenyl)-1H-1,2,3-triazol-1-yl)hexanamide], at ERα [2], the “Inhibition of estrogenic response (antiestrogenic activity), ERE-luciferase reporter” value is given as “concentration dependent inhibition of estrogenic response”. The molecule further displayed a 50% inhibitory concentration (IC50) at ERα [3] of 2900 ± 300 nM. Besides, the “Cell death in MDA-MB-231 ER(−) cells” value with MDA-MB-231 ER(−) cells is on record as “caused significant cell death”.
Turning to `Oc1ccc(-c2sc3cc(O)ccc3c2Oc2ccc(OCCN3CCCCC3)cc2)cc1` [DMA, desmethylarzoxifene], the “Toxicity towards MCF-7 cells” value with MCF-7 ER(+) cells (10 μM, 72 h treatment) is “toxic”.
As for `O=C(Nc1cc(-c2ccccc2)ccc1O)c1c(-c2ccc(O)cc2)sc2cc(O)ccc12` [compound 10, 6-hydroxy-N-[4-hydroxy-(1,1′-biphenyl)-3-yl]-2-(hydroxyphenyl)benzo[b]thiophene-3-carboxamide], the “% inhibition of HDAC1” value on human recombinant HDAC1 (pre-incubation 3 h) is listed as 21–34%. Moreover, the “% inhibition of HDAC3” value on human recombinant HDAC3 (pre-incubation 3 h) is reported as 0–12%.
